Test results reported in patent publication US11793420B2, “Ingestible device for delivery of a dispensable substance” (Biora Therapeutics, Inc., priority 2016, dated 2023).

Target: Human TNFα (Homo sapiens, UniProt P01375)
Assay: AlphaLISA competitive inhibition assay of drug recovered from bellows or syringe

Sequence of Human TNFα (P01375 77-233 limits assumed): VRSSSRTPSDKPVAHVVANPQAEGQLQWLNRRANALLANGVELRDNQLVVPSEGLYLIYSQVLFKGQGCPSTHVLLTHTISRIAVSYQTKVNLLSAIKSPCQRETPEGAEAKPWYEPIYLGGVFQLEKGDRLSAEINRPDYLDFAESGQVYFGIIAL

shift of bellows curves (after 24 hours (FIG. 86), within the error bars): slight right shift
IC50 values of the drug dispensed from the bellows versus standard dispensation method (bellows vs. standard dispensation method (Table 6)): comparable
Substance: adalimumab [Exemptia]
impact of bellows on drug function (silicone or PVC bellows, shelf lives of 4, 24 hours, or 336 hours): do not negatively impact the drug function
